Source: US20170014386A1, “Treatment of Multidrug-Resistant Nephrotic Syndrome (MDR-NS) in Children” (AbbVie, Inc., priority 2015, published 2017)
Entries after “also recorded” stand apart in the source; their conditions may differ.

Experiments:
[1] = system: Nphs2^R140Q/− mice; assay: kidney histopathology (tubulointerstitial fibrosis, glomerular sclerosis index, podocytes per glomerulus) in the mouse model; assay type: in vivo
Protocol: We have analyzed results from studies in a transgenic mouse model where the mice were treated with atrasentan. Using the Cre recombinase technology, we generated a novel inducible mouse model of podocin-related nephrotic syndrome. Cross-breeding of animals carrying one foxed podocin construct, one podocin allele with the R140Q mutation, and tamoxifen-sensitive inducible Cre enabled us to induce hemizygosity for the R140Q mutant. In this work, we were able to examine the human missense mutation […] of NPHS2 gene identified in pediatric patients with nephrotic syndrome in vivo in an inducible mouse model of R140Q mutation (murine analogue to the human mutation). […] Furthermore, from the end of the week four of observation the values of plasma urea and creatinine started to increase slightly and the creatinine clearance appeared to reduce, pointing to the beginning of renal failure. Proteinuria (FIG. 1A, FIG. 1B, and FIG. 1D), weight gain and blood pressure (FIG. 1C) were monitored once weekly. All animals were sacrificed at the end of the observation period at week 5 (or week 9 with delayed treatment) and the biochemical parameters (FIG. 3A-E) were determined. All results were compared to two control groups of healthy and sick untreated animals. […] Quantification was done with Image ProPremier (glomerular sclerosis index-GSI, 50 glomeruli/animal). […] FIG. 5C tabulates podocyte numbers per glomerulusWT1-via immunostaining of glomerular cross-sections (4 μm and 10 μm). Quantification was done with ImageJ according to Animal Models of Diabetic Complications Consortium protocol. 50 glomeruli/animal. We found no effect on the number of podocytes per glomerulus in treated animals. Proteinuria (FIG. 6), weight gain and blood pressure (FIG. 7) were monitored at least every 2 weeks. All animals were sacrificed at the end of the observation period and biochemical parameters (FIG. 8) as well as histological changes (FIG. 9) were determined consequently. All results were compared to control groups of healthy and sick untreated animals. […] FIG. 9A are exemplary images of healthy, untreated and Atrasentan treated kidney samples.

[2] = system: Nphs2^R140Q/− mice; assay: mean arterial blood pressure in inducible mouse model of podocin-related nephrotic syndrome; assay type: in vivo
Protocol: (§1) We have analyzed results from studies in a transgenic mouse model where the mice were treated with atrasentan. Using the Cre recombinase technology, we generated a novel inducible mouse model of podocin-related nephrotic syndrome. Cross-breeding of animals carrying one foxed podocin construct, one podocin allele with the R140Q mutation, and tamoxifen-sensitive inducible Cre enabled us to induce hemizygosity for the R140Q mutant. In this work, we were able to examine the human missense mutation […] of NPHS2 gene identified in pediatric patients with nephrotic syndrome in vivo in an inducible mouse model of R140Q mutation (murine analogue to the human mutation). […] Furthermore, from the end of the week four of observation the values of plasma urea and creatinine started to increase slightly and the creatinine clearance appeared to reduce, pointing to the beginning of renal failure. Seven animals were treated with 5 mg/kg/d atrasentan and another three animals were treated with the lower dose of 2.5 mg/kg/d atrasentan via food intake for four weeks. Furthermore, we started a new group of 8 animals with a higher dose treatment of 15 mg/kg/d atrasentan. […] Proteinuria (FIG. 1A, FIG. 1B, and FIG. 1D), weight gain and blood pressure (FIG. 1C) were monitored once weekly. All animals were sacrificed at the end of the observation period at week 5 (or week 9 with delayed treatment) and the biochemical parameters (FIG. 3A-E) were determined. All results were compared to two control groups of healthy and sick untreated animals. […] Therefore, we started the treatment after 4 weeks of disease state (5 mg/kg/d) when animals are showing high proteinuria, performing 4-weeks treatment duration (n=14) and 8 weeks treatment duration (n=4), respectively. Proteinuria (FIG. 6), weight gain and blood pressure (FIG. 7) were monitored at least every 2 weeks. All animals were sacrificed at the end of the observation period and biochemical parameters (FIG. 8) as well as histological changes (FIG. 9) were determined consequently. All results were compared to control groups of healthy and sick untreated animals.

[3] = target: T1, ETA receptor (Homo sapiens, UniProt P25101); conditions: cited from earlier work
T1 sequence (P25101 21-427): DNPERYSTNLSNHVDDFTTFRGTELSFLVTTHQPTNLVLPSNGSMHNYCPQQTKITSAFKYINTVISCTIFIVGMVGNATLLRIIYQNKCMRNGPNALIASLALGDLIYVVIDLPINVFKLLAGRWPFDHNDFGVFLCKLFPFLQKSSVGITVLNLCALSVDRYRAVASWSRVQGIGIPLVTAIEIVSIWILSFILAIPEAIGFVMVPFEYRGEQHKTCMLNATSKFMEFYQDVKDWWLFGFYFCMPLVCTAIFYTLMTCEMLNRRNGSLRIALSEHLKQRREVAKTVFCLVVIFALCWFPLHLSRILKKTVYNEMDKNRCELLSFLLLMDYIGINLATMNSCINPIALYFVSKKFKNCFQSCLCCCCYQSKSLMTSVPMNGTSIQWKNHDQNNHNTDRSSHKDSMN

[4] = system: podocin; assay: podocin expression analysis (Western blot, qRT-PCR, immunofluorescence) in the mouse model; assay type: in vivo; conditions: treated animals, Example 2
Protocol: Further podocin expression analysis was carried out.

[5] = system: Nphs2^R140Q/− mice; assay: proteinuria in inducible mouse model of podocin-related nephrotic syndrome; assay type: in vivo
Protocol: as §1, with “All results were compared to control groups of healthy and sick untreated animals.” left out

[6] = system: Endothelin-1, ETAR and ETBR; assay: expression of Endothelin-1, ETAR and ETBR (real-time PCR, Western blot) in kidney of the mouse model; assay type: in vivo; conditions: Atrasentan treated animals, Example 2
Protocol: Western blot analysis was performed to confirm the observation of increased mRNA level in the late course of disease (FIG. 11).

[7] = delayed treatment, 4 weeks of treatment, compared to sick untreated animals of the same age, Example 2

For `CCCCN(CCCC)C(=O)CN1C[C@H](c2ccc3c(c2)OCO3)[C@@H](C(=O)O)[C@@H]1c1ccc(OC)cc1` [atrasentan, (2R,3R,4S)-4-(1,3-Benzodioxol-5-yl)-1-[2-(dibutylamino)-2-oxoethyl]-2-(4-methoxyphenyl)pyrrolidine-3-carboxylic acid], the tubulointerstitial fibrosis ([1]; 2.5 mg/kg/d, p<0.05 compared to untreated group, Example 1) was “reduced area affected by fibrosis”, the tubulointerstitial fibrosis ([1]; 5 mg/kg/d, p<0.05 compared to untreated group, Example 1) was “reduced area affected by fibrosis” and the tubulointerstitial fibrosis ([1]; 15 mg/kg/d, Example 1) was “increase of tubulointerstial fibrosis”. The “glomerular sclerosis index (GSI)” value ([1]; all treatment groups, PAS staining, 50 glomeruli/animal, Example 1) was “No improvement”, the podocytes per glom ([1]; delayed treatment (D), n.s. vs. untreated wk 8 32%) was 54 % of healthy controls and the GSI ([1]; delayed treatment (D), n=9, p=0.0008 v untreated wk 8 2.27) was 1.69. For the same compound, the glomerulosclerosis [1, 7] was “mitigated”, the tubulointerstitial fibrosis [1, 7] was “mitigated” and the podocyte population ([1]; delayed treatment, 4 weeks of treatment, Example 2) was “No notable effects”. For the same compound, the “number of podocytes per glomerulus” value ([1]; treated animals, WT1 immunostaining, Example 1) was “no effect”, the blood pressure ([2]; delayed treatment 5 mg/kg/d, compared to untreated animals, Example 1) was “lowered blood pressure” and the MAP ([2]; delayed treatment (D), wk7, p=0.001 v untreated 99.5) was 80.4 mmHg. For the same compound, the blood pressure ([2]; four-week delay, 5 mg/kg/d, compared to untreated animals at week 5 and 7 (p=0.001, p=0.047), Example 2) was “significant decrease of blood pressure”, the blood pressure ([2]; prophylactic 2.5 mg/kg/d, compared to untreated and healthy animals, Example 1) was “higher blood pressure” and the blood pressure ([2]; prophylactic 5 mg/kg/d, compared to untreated and healthy animals, Example 1) was “higher blood pressure”. For the same compound, the blood pressure ([2]; prophylactic 15 mg/kg/d, compared to untreated animals, Example 1) was “lower blood pressure”, the “relative selectivity for ETA receptor over ETB receptor” value [3] was “greater than 1,800 fold” and the Podocin protein abundance ([4]; Western blot) was “partly preserved”. For the same compound, the “Podocin mRNA expression” value ([4]; qRT-PCR) was “partly preserved”, the proteinuria ([5]; delayed treatment 5 mg/kg/d after 4 weeks of disease state, Example 2) was “reaches a peak and declines afterwards progressively; also recorded: decreased progressively” and the proteinuria ([5]; delayed treatment 5 mg/kg/d started four weeks after induction, n=9, Example 1) was “effective attenuation of proteinuria; also recorded: antiproteinuric effect”. The proteinuria ([5]; immediate or prophylactic treatment, 2.5, 5 or 15 mg/kg/d via food, first 4 weeks after induction, Example 1) was “no beneficial effect in attenuating proteinuria; also recorded: no antiproteinuric effect”, the “ETAR mRNA expression” value [6] was “lower expression” and the “ETBR mRNA expression” value [6] was “lower expression”. For the same compound, the “endothelin-1 mRNA expression” value [6] was “lower expression” and the “protein expression of endothelin-1” value ([6]; Western blot) was “decreased protein expression”.
